Reference: ChEMBL document CHEMBL1131773, “Synthesis and structure-activity relationships of new non-steroidal progesterone receptor ligands” (Bioorg Med Chem Lett, 1999)

Target: T1, Progesterone receptor (Homo sapiens) (UniProt P06401)
T1 sequence (whole entry): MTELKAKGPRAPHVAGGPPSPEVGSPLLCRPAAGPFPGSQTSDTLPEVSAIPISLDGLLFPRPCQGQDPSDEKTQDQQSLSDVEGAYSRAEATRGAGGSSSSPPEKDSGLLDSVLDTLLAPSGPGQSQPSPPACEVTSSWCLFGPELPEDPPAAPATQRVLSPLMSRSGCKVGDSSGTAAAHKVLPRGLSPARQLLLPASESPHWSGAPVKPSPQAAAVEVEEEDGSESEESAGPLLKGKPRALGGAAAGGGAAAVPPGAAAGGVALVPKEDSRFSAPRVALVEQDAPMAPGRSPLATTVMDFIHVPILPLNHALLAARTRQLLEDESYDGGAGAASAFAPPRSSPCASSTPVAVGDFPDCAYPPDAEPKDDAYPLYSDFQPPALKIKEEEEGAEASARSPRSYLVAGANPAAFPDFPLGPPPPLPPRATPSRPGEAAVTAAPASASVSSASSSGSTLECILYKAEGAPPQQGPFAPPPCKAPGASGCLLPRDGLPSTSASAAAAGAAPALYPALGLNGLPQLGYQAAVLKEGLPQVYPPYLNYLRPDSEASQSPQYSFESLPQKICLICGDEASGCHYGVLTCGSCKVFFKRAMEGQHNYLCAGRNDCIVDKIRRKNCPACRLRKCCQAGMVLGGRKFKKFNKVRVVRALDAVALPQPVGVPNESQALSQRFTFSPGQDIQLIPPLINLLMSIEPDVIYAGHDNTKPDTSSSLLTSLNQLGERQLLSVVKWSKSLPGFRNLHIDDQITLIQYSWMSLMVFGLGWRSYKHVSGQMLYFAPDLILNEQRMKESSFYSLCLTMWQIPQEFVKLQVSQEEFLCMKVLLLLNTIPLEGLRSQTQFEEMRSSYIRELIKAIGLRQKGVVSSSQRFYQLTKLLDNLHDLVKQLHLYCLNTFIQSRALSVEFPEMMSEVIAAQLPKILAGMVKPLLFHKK
Assay: Relative Binding affinity(RBA) to human progesterone receptor(PR) compared to PF1092A; (RBA= IC50 of PF1092A/ IC50 of test compound at human PR)

Row | SMILES | relative binding affinity (RBA)
1 | CC(=O)O[C@H]1[C@@H](O)C=C2C=C3OC(=O)C(C)=C3C[C@]2(C)[C@H]1C | 1
2 | CCC1=C2C[C@@]3(C)C(=CC[C@H](OC(C)=O)[C@@H]3C)C=C2OC1=O | 0.2
3 | CC(=O)O[C@H]1[C@H](C)C=C2C=C3OC(=O)C(C)=C3C[C@]2(C)[C@H]1C | 1.6
4 | CC(=O)O[C@H]1CC=C2C=C3OC(=O)C=C3C[C@]2(C)[C@H]1C | 1.2
5 | CC(=O)O[C@H]1CC=C2C(C)=C3OC(=O)C(C)=C3C[C@]2(C)[C@H]1C | 0.07
6 | CO[C@H]1[C@@H](OC(C)=O)CC=C2C=C3OC(=O)C(C)=C3C[C@@]21C | 0.7

More lines, now with the values ahead:

Row | relative binding affinity (RBA) | SMILES
7 | 0.8 | CC(=O)O[C@H]1CC=C2C=C3OC(=O)C(C)=C3[C@H](C)[C@]2(C)[C@H]1C
8 | 0.08 | CC(=O)O[C@H]1CC=C2C=C3OC(=O)C(C)=C3C[C@]2(C)C1
9 | 0.8 | CC(=O)O[C@H]1CC=C2C=C3OC(=O)C(C)=C3C[C@]2(C)[C@H]1C
